What was measured:
[1] = target: PI3Kβ(PC-3) (Homo sapiens (Human), UniProt P42338); experiment: Cell activity of PI3K subtypes, AlphaLISA p-AKT (pS473); type: cell-based; details: PC-3 cells, LPA stimulated
Source text: (§1) The following method was used to determine the degree of inhibition of the compounds of the present invention on activity of PI3Kα, PI3Kβ, PI3Kγ, and PI3Kδ kinase in different cells. The AlphaLISA SureFire Ultra p-AKT1/2/3 (pS473) kit (#ALSU-PAKT-B500) of PE company was used in the method. The above kit used AlphaLISA technology, using donor and acceptor beads to detect the interaction of biomolecules, to detect the content of p-AKT (pS473), reflecting the intensity of inhibition of the compounds on PI3Kα, PI3Kβ, PI3Kγ and PI3Kδ at the cell level. For detailed experimental operations, please refer to the kit instructions.
(§2) The experimental procedure was briefly described as follows: the experiment was carried out in a 384-well plate using a Multidrop dispenser (Thermo, #836-4049), using different cells for different PI3K subtypes (PI3Kα: C2C12 cells (myoblasts); PI3Kβ: PC-3 cells (human prostate cancer cells); PI3Kγ: Raw264.7 cells (monocyte macrophages); PI3Kδ: Raji cells (lymphoma cells)). 6 μL of the corresponding cells were transferred to the wells of a 384-well plate. After centrifugation 500 RPM for 30 seconds, the plate was placed in a 37° C., 5% CO2 incubator for 2 hours. The test compound was first dissolved in DMSO to prepare a 10 mM stock solution, which was diluted 4-fold with DMSO. 30 nL was transferred by Echo (Labcyte, #550) to each well (final concentration is 10000 nM-0.2 nM), and incubated for 30 minutes. Then for C2C12 cells used for PI3Kα subtype, 2 uL IGF-1 (R&D, #291-G1-200, final concentration 1200 ng/mL) was added and incubated for 20 minutes. For PC-3 cells used for PI3Kβ subtype, 2 μL LPA (Sigma, #L7260, final concentration 15 ug/mL) was added and incubated for 20 minutes. For Raw264.7 cells used for PI3Kγ subtype, 2 uL C5a (Biotang, #RPR9899, final concentration 80 ng/mL) was added and incubated for 5 minutes. For Raji cells used for PI3Kδ subtype, 2 μL IgM (Jackson ImmunoResearch, #109-006-129, final concentration 3 ug/mL) was added and incubated for 10 minutes. After the incubation, AlphaLISA SureFire Ultra p-AKT1/2/3(pS473) kit was used to determine the AlphaLISA signal. The kit determination method was briefly described as follows: 20 μL Lysis Buffer was used to lyse the cells for 10 minutes. Then 5 uL acceptor mix and 5 uL donor mix were added to a 384-well plate. The plate was incubated with shaking at room temperature for 2 hours. Envision (PE, #2104) was used to read AlphaLISA signal. By comparing with the signal intensity ratio of the control group (0.5% DMSO), the percentage inhibition rate of the compound at each concentration was calculated. The GraphPad Prism 5 software was used to perform nonlinear regression analysis of the compound concentration logarithmic value vs. the inhibition rate to obtain the IC50 values of the compounds, shown in Table 3.

[2] = target: PI3Kα(C2C12) (Mus musculus (Mouse), UniProt P42337); experiment: as above; type: cell-based; details: C2C12 cells, IGF-1 stimulated
Source text: as §1, §2

[3] = target: PI3Kγ(Raw264.7) (Mus musculus (Mouse), UniProt Q9JHG7); experiment: as above; type: cell-based
Chain of PI3Kγ(Raw264.7) (Q9JHG7 whole entry): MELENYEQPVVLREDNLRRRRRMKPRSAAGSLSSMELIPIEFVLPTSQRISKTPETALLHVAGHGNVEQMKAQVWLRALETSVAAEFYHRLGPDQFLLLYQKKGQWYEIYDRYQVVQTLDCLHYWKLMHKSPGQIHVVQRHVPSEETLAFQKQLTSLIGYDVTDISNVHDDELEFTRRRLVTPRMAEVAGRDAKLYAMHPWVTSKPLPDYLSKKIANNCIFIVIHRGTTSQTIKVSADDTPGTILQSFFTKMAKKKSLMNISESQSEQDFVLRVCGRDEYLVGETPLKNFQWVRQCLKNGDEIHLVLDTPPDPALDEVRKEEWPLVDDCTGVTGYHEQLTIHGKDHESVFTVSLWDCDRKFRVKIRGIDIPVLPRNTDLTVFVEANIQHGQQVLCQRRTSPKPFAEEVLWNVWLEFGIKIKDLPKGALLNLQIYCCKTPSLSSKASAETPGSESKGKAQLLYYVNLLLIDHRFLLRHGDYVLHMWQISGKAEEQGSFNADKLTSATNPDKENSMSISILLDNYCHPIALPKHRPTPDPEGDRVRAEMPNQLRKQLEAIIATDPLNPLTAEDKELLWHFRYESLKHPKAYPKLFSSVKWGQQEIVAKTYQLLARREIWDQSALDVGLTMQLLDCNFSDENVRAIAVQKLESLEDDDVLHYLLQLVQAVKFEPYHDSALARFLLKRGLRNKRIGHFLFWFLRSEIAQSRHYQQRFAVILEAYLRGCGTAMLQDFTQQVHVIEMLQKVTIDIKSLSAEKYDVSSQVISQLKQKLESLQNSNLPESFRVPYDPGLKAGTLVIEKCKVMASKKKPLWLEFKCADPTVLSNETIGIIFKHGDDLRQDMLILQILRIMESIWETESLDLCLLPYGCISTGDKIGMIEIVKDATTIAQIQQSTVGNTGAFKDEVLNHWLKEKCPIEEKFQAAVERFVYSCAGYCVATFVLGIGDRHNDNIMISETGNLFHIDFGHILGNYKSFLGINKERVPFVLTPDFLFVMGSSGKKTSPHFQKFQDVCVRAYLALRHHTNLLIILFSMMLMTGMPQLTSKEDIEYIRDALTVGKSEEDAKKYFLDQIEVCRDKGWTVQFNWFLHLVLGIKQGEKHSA
Chain of PI3Kγ(Raw264.7) (Q5SW28 whole entry partner): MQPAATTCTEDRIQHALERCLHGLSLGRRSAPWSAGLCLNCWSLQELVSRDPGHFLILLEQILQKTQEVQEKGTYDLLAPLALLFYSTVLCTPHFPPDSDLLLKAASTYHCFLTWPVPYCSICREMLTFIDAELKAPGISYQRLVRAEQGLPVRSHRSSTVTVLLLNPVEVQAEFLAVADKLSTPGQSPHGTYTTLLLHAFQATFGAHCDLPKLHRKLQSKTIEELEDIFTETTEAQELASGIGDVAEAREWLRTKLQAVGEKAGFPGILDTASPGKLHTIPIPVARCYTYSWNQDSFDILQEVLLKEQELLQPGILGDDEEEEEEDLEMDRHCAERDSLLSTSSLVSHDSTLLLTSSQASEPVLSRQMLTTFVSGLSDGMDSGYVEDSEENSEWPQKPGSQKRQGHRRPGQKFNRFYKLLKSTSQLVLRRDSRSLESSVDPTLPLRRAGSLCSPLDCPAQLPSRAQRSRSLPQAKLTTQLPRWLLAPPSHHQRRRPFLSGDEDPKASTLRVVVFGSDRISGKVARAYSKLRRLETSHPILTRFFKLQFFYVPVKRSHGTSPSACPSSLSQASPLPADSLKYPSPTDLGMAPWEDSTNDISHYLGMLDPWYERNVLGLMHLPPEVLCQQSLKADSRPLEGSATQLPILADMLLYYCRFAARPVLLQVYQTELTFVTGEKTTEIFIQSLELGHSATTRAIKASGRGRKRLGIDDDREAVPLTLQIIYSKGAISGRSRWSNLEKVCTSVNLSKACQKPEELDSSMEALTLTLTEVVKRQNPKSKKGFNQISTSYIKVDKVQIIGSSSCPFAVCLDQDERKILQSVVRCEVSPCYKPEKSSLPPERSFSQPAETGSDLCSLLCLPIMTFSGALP
Source text: as §1, §2

[4] = target: PI3Kδ(Raji) (Homo sapiens (Human), UniProt O00329); experiment: as above; type: cell-based; details: Raji cells, IgM stimulated
Source text: as §1, §2

[5] = Oral pharmacokinetics in SD rats; type: in vivo; details: male, rat, plasma, Oral (5 mg/kg)
Procedure: Using SD rats as test animals, the rats were intragastrically administrated with the compound of the present invention. LC/MS/MS method was used to determine the drug concentration in the plasma at different times to study the pharmacokinetic characteristics of the compound of the present invention in rats.
An appropriate amount of the compound to be tested was weighed, and 0.5% sodium carboxymethylcellulose (containing 0.05% Tween80) was added. The mixture was vortexed, and sonicated so that the solid was ultrasonically dispersed uniformly to obtain a suspension. 100 μL×2 of the filtered preparation were aspirated, and placed in 1.5-mL EP tubes, stored at […]. The concentration of the preparation was 0.5 mg/mL.
Nine healthy adult male SD rats were fasted overnight and then intragastrically administered (dosage of administration was 5 mg/kg), and fed 4 hours after administration.
About 0.2 mL of blood was collected from the jugular vein at 0.083 hours, 0.25 hours, 0.5 hours, 1 hour, 2 hours, 4 hours, 8 hours, 12 hours, and 24 hours after administration, and heparin sodium was used for anticoagulation. The collected blood samples were placed on ice and centrifuged to separate the plasma (centrifugation conditions: 1500 g, 10 minutes). The collected plasma was stored at −40 to −20° C. before analysis. The LC-MS/MS method was used to determine the content of the test compound in the plasma of SD rats after intragastric administration of different compounds.

[6] = target: recombinant human PI3Kδ (Homo sapiens (Human), UniProt O00329); experiment: Inhibitory activity on PI3K kinase (ADP-Glo Kinase Assay)
[7] = target: recombinant human PI3Kγ (Homo sapiens (Human), UniProt P48736); experiment: as above; type: biochemical
Chain of recombinant human PI3Kγ (P48736 whole entry): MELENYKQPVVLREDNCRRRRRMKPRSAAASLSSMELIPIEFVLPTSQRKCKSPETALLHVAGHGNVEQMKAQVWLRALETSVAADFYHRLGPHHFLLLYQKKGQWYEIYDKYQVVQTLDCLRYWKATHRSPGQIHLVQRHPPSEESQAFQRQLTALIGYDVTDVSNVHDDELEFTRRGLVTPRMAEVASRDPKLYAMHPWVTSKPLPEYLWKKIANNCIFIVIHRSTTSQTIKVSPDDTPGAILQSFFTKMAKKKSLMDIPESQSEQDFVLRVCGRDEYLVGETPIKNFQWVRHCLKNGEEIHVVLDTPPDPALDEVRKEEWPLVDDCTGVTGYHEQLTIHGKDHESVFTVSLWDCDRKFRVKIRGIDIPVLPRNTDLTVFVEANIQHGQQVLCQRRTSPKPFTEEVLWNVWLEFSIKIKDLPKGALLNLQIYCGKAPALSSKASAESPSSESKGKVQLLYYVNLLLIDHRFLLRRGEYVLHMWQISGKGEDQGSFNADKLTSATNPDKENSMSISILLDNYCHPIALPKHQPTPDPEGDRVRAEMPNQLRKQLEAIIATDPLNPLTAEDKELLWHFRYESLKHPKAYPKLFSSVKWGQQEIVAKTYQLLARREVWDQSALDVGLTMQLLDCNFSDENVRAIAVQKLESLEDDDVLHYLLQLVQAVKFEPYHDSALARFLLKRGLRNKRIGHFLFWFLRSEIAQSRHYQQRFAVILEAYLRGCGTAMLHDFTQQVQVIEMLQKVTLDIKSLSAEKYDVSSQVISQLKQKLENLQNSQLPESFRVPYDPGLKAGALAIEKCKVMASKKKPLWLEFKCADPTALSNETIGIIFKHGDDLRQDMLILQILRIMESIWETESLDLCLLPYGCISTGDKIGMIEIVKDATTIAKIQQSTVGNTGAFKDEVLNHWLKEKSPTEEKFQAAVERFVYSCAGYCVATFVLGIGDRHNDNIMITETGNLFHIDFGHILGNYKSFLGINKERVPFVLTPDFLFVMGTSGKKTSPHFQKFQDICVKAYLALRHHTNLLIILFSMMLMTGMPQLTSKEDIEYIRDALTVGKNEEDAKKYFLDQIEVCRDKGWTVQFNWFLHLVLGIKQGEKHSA
Source text: The following method is used to determine the degree of inhibition of recombinant human PI3Kα, PI3Kβ, PI3Kγ and PI3Kδ kinase activity by the compounds of the present invention under in vitro conditions. Promega's ADP-Glo Kinase Assay Kit (Cat. No. V9102) was used in this method. The above kit was a luminescence kinase detection kit, which was used to detect the ADP content produced by the kinase reaction. The ADP content was positively correlated with the kinase activity. By measuring the ADP content, the inhibition of the compound on the activity of PI3Kα, PI3Kβ, PI3Kγ and PI3Kδ kinases was reflected. For detailed experimental operations, please refer to the kit instructions. Recombinant human PI3Kα, PI3Kγ, and PI3Kδ were purchased from Invitrogen, and PI3Kβ was purchased from Promega (category numbers were PI3Kα: PV4788; PI3Kβ: V1751; PI3Kγ: PV4786 and PI3Kδ: PV6451 separately).

Chain of PI3Kβ(PC-3) (P42338 whole entry): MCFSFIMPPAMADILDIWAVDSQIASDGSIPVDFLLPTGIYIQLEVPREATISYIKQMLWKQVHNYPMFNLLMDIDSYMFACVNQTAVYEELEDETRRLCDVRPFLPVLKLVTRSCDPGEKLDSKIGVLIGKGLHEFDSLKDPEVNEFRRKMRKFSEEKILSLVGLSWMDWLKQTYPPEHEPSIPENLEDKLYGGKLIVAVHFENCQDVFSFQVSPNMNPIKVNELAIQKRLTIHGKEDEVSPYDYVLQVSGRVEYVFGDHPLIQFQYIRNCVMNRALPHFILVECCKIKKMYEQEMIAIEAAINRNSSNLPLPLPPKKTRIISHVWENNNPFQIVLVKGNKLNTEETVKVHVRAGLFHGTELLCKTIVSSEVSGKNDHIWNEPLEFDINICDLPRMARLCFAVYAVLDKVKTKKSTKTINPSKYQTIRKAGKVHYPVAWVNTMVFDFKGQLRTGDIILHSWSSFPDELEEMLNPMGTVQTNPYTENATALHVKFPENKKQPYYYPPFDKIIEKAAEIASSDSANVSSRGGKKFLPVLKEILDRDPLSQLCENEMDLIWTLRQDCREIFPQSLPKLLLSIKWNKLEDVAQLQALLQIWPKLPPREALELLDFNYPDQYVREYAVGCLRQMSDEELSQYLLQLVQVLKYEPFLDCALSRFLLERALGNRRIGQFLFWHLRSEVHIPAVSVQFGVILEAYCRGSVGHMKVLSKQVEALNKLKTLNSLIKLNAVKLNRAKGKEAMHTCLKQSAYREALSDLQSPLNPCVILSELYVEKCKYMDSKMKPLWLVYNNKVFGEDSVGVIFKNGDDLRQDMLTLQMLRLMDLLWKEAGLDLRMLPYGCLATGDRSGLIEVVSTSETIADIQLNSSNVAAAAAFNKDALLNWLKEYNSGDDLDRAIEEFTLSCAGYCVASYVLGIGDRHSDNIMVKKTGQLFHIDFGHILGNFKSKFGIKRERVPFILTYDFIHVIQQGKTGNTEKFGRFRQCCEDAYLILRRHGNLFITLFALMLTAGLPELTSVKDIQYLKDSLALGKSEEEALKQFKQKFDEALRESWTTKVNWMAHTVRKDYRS
Chain of PI3Kβ(PC-3) (P27986 whole entry partner): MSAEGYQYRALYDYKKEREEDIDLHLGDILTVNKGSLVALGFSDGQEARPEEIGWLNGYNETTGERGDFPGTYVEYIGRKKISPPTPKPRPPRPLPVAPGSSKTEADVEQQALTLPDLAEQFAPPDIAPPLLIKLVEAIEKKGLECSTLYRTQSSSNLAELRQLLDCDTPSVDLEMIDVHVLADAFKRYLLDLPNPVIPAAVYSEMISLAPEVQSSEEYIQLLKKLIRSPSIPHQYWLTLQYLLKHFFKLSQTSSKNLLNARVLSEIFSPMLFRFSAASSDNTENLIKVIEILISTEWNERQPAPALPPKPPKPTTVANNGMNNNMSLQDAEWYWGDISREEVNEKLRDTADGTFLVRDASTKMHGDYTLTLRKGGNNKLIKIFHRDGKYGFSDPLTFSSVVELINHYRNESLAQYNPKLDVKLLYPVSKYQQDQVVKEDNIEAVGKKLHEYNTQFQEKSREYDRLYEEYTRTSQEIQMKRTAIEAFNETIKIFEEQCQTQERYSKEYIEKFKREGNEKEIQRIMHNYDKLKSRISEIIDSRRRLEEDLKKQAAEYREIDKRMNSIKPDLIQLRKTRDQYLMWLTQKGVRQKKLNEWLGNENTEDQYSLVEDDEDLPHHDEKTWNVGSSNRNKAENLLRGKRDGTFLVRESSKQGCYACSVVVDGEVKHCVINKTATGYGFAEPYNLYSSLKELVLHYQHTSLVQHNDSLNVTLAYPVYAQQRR

IC50 [1]: 878 nM | IC50 [2]: 4770 nM | IC50 ([3]; Raw264.7 cells, C5a stimulated, p-AKT (pS473)): 3.42 nM | IC50 (PI3Kα)/IC50(PI3Kγ) ([3]; cell selectivity, C2C12 vs Raw264.7): 1394 | IC50 (PI3Kβ)/IC50(PI3Kγ) ([3]; cell selectivity, PC-3 vs Raw264.7): 257 | IC50 (PI3Kδ)/IC50(PI3Kγ) ([3]; cell selectivity, Raji vs Raw264.7): 104 | IC50 [4]: 355 nM | AUC(0-inf) ([5]; read-out: Area under the curve AUC0-∞): 11000 ng·h/mL | bioavailability ([5]; read-out: Bioavailability F): 66% | half-life ([5]; read-out: Half-life period T1/2 (converted)): 4.1 h | Cmax ([5]; read-out: Plasma concentration Cmax): 1160 ng/mL | IC50 [6]: 191 nM | IC50 ([7]; ADP-Glo, ATP 10 μM): 0.58 nM | IC50 (PI3Kα)/IC50(PI3Kγ) ([7]; kinase selectivity for PI3Kγ over PI3Kα): 370 | IC50 (PI3Kβ)/IC50(PI3Kγ) ([7]; kinase selectivity for PI3Kγ over PI3Kβ): 804 | IC50 (PI3Kδ)/IC50(PI3Kγ) ([7]; kinase selectivity for PI3Kγ over PI3Kδ): 330
SMILES: C[C@H](NC(=O)c1c(N)nn2cccnc12)c1nc2cccc(C#Cc3cnn(C4CC4)c3)c2c(=O)n1-c1ccccc1 [Example 2, (S)-2-amino-N-(1-(5-((1-cyclopropyl-1H-pyrazol-4-yl)ethynyl)-4-oxo-3-phenyl-3,4-dihydroquinazolin-2-yl)ethyl)pyrazolo[1,5-a]pyrimidine-3-carboxamide]
